Columns and labels:
786-O cells = test: Cell growth test (MTT), 786-O; assay type: cell-based; conditions: Homo sapiens, 786-0, MTT test after 48 h, read-out: IC50 (concentration necessary to inhibit 50% of cell growth)
Procedure: (§1) The cell growth tests are carried out in transparent 96-well microplates (Greiner) after having seeded 100 μl/well of a cell solution having 2·10^5 cells/ml to 5·10^5 cells/ml (depending on the cell lines). After incubating for 24 h at 37° C. with 5% CO2, the culture medium is removed and replaced with solutions of the molecule to be tested at various concentrations. The cells are incubated with these molecules for an additional 48 h at 37° C. with 5% CO2. After elimination of the medium, the cells are washed with blank RPMI (Gibco, Invitrogen) then incubated with 3-(4,5-dimethylthiazol-2-yl)-2,5-diphenyltetrazolium bromide or MTT (0.5 mg/ml final concentration) for 4 h at 37° C. with 5% CO2. MTT (Sigma Aldrich) makes it possible to estimate the viability of the cells by measuring the activity of a mitochondrial enzyme. Indeed, in living cells, mitochondrial dehydrogenases are capable of cleaving the tetrazolium ring, thus leading to the formation of formazan crystals that are insoluble in an aqueous medium. These crystals are dissolved with the addition of a solubilizing solution (isopropanol, 10% Triton X100, 0.1 N HCl). After stirring, the absorbance is measured at 570 nm using the FLUOstar OPTIMA microplate reader. […]
(§2) The viability of the cells was evaluated using an MTT test after 48 h of exposure with various concentrations of molecules (from 100 μM to 0.001 μM). […]

MES-SA cells = test: Cell growth test (MTT), MES-SA; assay type: cell-based; conditions: Homo sapiens, MTT test after 48 h, read-out: IC50 (concentration necessary to inhibit 50% of cell growth)
Procedure: as §1, §2

purified tubulin = test: In vitro assembly of purified tubulin; assay type: biochemical; conditions: tubulin 1 mg/ml; Compound 1 at 25, 50, 100 μM
Procedure: FIG. 5 compares the effects of the Compound 1 of the invention with the effect of paclitaxel (Taxol®) on the assembly of the tubulin purified in vitro. Purified tubulin (1 mg/ml) is incubated in PEM buffer in the presence of GTP (1 mM), MgCl2 (5 mM), DAPI (10 μM) at 37° C. The effect of Compound 1 of the invention at various concentrations (×25 μM, ⊚ 50 μM and Δ 100 μM) is compared to that of paclitaxel (Taxol®) (▪) and of DMSO ( ? );
In order to know whether Compound 1 of the invention exerts its stabilizing effect via a direct action on tubulin, such as paclitaxel does, or by means an effector, its effect on the in vitro assembly of tubulin in microtubules has been analyzed. The first experiments were carried out on purified tubulin (1 mg/ml).

[1] = tested on: Glu-tubulin signal in HeLa cells; test: Glu-tubulin dose-effect, immunofluorescence in microplates; assay type: cell-based, Human; conditions: 2 h, highest concentrations
Procedure: HeLa cells are seeded in black-bottomed black 96-well microplates (Greiner 655086) by distributing 90 μl per well of a cell solution containing 40 000 cells/ml, and incubated at 37° C. with 5% CO2. 24 h later, the cells are incubated with the molecules to be tested for 2 h at 37° C. with 5% CO2. The cells are then permeabilized with warm OPT buffer for 6 minutes at 37° C. then fixed in methanol for 10 minutes at room temperature. The cells are rinsed twice with PBS/0.1% Tween® 20 and incubated with the primary antibodies YL1/2 and L4 (cf. the antibodies from Table III) diluted to 1/4000 in a solution of PBS/0.3% BSA/0.02% NaN3 overnight at 37° C. […] The various fluorescence intensities are measured using the FLUOstar OPTIMA reader. […]
A dose-effect curve measuring the variation of the amount of Glu-tubulin was produced for Compound 1 of the invention. […] The fluorescence intensity was then measured using the microplate reader.
The percentage of the signal measured represents its distance relative to the control of bioactivity (paclitaxel (Taxol®)) and to the control of bioinactivity (DMSO). The EC50 was determined using KaleidaGraph® 3.60 software.

Cc1c2cc[nH]c(=O)c2c(C)c2c1[nH]c1ccc(OC(=O)c3ccccc3)cc12 [Compound 1, 9-benzoyloxy-5,11-dimethyl-2H,6H-pyrido[4,3-b]carbazol-1-one]
IC50 (786-O cells): 55.1 µM
IC50 (MES-SA cells): 26 µM
Assembly of purified tubulin in vitro (purified tubulin): No assembly is observed
Increase in the Glu signal relative to paclitaxel [1]: slightly smaller than that of paclitaxel
